According to publication PMC7127791 (Bioorganic & Medicinal Chemistry Letters, 2016):
“Also recorded” adds a separate entry of the source.

Tests used:
Para-influenza-3 virus = experiment: organism not typed; type: cell-based, Parainfluenza-3 virus; conditions: Vero, read-out: Antiviral EC50 Para-influenza-3 virus
Reovirus-1 = experiment: organism not typed; type: cell-based; conditions: Vero, read-out: Antiviral EC50 Reovirus-1
[1] = tested on: broad and diverse panel of DNA and RNA viruses; type: cell-based
HEL cells = experiment: Cytotoxicity; conditions: human embryonic lung fibroblast cells; microscopy
Vero cells = experiment: Cytotoxicity; conditions: minimal cytotoxic concentration by microscopical inspection
HeLa cells = experiment: Cytotoxicity; conditions: HeLa cervix carcinoma cells; microscopy
MDCK cells = experiment: Cytotoxicity; conditions: Madin-Darby canine kidney cells; microscopy
varicella zoster virus = conditions: human
Punta Toro virus [2] = type: cell-based
[3] = tested on: Rift Valley fever virus (MP-12 strain); type: cell-based
Punta Toro virus [4] = type: cell-based; remark: listed apart in the source
other cell lines tested = experiment: Cytotoxicity in the other mammalian cell lines tested; conditions: 100 μM compound concentration; cell lines other than Vero, HEL and MT4

| Structure (SMILES) | EC50 (Para-influenza-3 virus) [µM] | EC50 (Reovirus-1) [µM] | Cytotoxicity MCC HEL (HEL cells) [µM] | Cytotoxicity MCC (Vero cells) [µM] | Cytotoxicity MCC HeLa (HeLa cells) | Cytotoxicity MCC MDCK (MDCK cells) [µM] | further results |
| --- | --- | --- | --- | --- | --- | --- | --- |
| CCOC(=O)C1=C(C)NC(=O)NC1c1ccccc1Cl (centres unmarked) [Compound 4b, Ethyl 4-(2-chlorophenyl)-6-methyl-2-oxo-1,2,3,4-tetrahydropyrimidine-5-carboxylate] | > 100 | > 100 | >100 | >100 | >100 µM | >100 | antiviral activity against the virus panel (in words) [1]: no antiviral activity |
| CCOC(=O)C1=C(C)NC(=O)NC1c1ccc(O)cc1 (centres unmarked) [Compound 4e, Ethyl 4-(4-hydroxyphenyl)-6-methyl-2-oxo-1,2,3,4-tetrahydropyrimidine-5-carboxylate] | > 100 | > 100 | >100 | >100 | >100 µM | >100 |  |
| CCOC(=O)C1=C(C)NC(=O)NC1c1ccc(N(C)C)cc1 (centres unmarked) [Compound 4g, Ethyl 4-[4-(dimethylamino)phenyl]-6-methyl-2-oxo-1,2,3,4-tetrahydropyrimidine-5-carboxylate] |  |  | >100 | 100 | >100 µM | >100 |  |
| CCOC(=O)C1=C(C)NC(=O)NC1/C=C/c1ccccc1 (centres unmarked) [Compound 4h, Ethyl 6-methyl-2-oxo-4-[(E)-2-phenylethenyl]-1,2,3,4-tetrahydropyrimidine-5-carboxylate] | > 100 | > 100 | >100 | 100 | ⩾100 μM | >100 | MCC reported with the varicella zoster virus EC50 (varicella zoster virus): 100 µM |
| CCOC(=O)C1=C(C)NC(=O)NC1c1cccs1 (centres unmarked) [Compound 4i, Ethyl 6-methyl-2-oxo-4-(thiophen-2-yl)-1,2,3,4-tetrahydropyrimidine-5-carboxylate] |  |  |  |  | >100 µM | >100 |  |
| CCOC(=O)C1=C(C)NC(=O)NC1 [Compound 4j, Ethyl 6-methyl-2-oxo-1,2,3,4-tetrahydropyrimidine-5-carboxylate] |  |  |  |  | >100 µM | >100 |  |
| CCOC(=O)C1=C(C)NC(=O)NC1C (centres unmarked) [Compound 4k, Ethyl 4,6-dimethyl-2-oxo-1,2,3,4-tetrahydropyrimidine-5-carboxylate] |  |  |  |  | >100 µM | >100 |  |
| CCOC(=O)C1=C(C)NC(=O)NC1CC(C)C (centres unmarked) [Compound 4l, Ethyl 6-methyl-4-(2-methylpropyl)-2-oxo-1,2,3,4-tetrahydropyrimidine-5-carboxylate] |  |  | >100 | >100 | >100 µM | >100 |  |
| CCCCCCCCCCCC1NC(=O)NC(C)=C1C(=O)OCC (centres unmarked) [Compound 4m, Ethyl 6-methyl-2-oxo-4-undecyl-1,2,3,4-tetrahydro-5-pyrimidinecarboxylate] | > 100 | > 100 | 100 |  | >100 µM | >100 | activity against Punta Toro virus (in words) (Punta Toro virus [2]): selective and potent inhibitor; also recorded: selective and potent antiviral activity; also recorded: potent and selective inhibitor; times more potent than dextran sulphate (DS-10000) (Punta Toro virus [2]): approximately 7 times; times more potent than mycophenolic acid (Punta Toro virus [2]): approximately 7 times; activity against Rift Valley fever virus (in words) [3]: negligible; reduction in RVFV-induced CPE [3]: about 40%; 50% inhibition of RVFV at 100 μM (in words) ([3]; 100 μM): unable to achieve 50% inhibition; activity against PTV in HeLa cells (in words) (Punta Toro virus [4]): inactive; antiviral activity against the virus panel (in words) [1]: did not have antiviral activity against all other viruses tested; toxicity in the other cell lines tested (in words) (other cell lines tested): no toxicity |
| CCOC(=O)C1C2NC(=O)NC1(C)Oc1ccccc12 (centres unmarked) [Compound 5, Ethyl 9-methyl-11-oxo-8-oxa-10,12-diazatricyclo[7.3.1.0^2,7]trideca-2,4,6-triene-13-carboxylate] | > 100 | > 100 | >100 | >100 | >100 µM | >100 |  |
| NC(=O)c1ncn([C@@H]2O[C@H](CO)[C@@H](O)[C@H]2O)n1 [Ribavirin, reference compound] |  | > 250 |  | >250 |  |  |  |
